According to US12162895B2, “DNA polymerase theta inhibitor for treatment of cancer” (Breakpoint Therapeutics GmbH, priority 2023, dated 2024):

Biological target: T1, Polθ (Homo sapiens, UniProt O75417)
T1 construct: a truncated Pole protein (Pole-Hel containing the helicase domain (67-894))
Test: Polθ ATPase assay (Biological Assay 1, ADP-Glo luminescence)
Format: biochemical
Conditions: truncated Polθ protein containing the helicase domain (67-894), ssDNA oligo, ATP, in vitro
Method: The Pole ATPase assay was used to evaluate inhibitors of Pole ATPase activity, in vitro. Experiments were performed using a truncated Pole protein (Pole-Hel containing the helicase domain (67-894), ATP and a DNA single strand Oligo (5′-CTGTCCTGCATGATG-3′) in the Pole assay buffer (20 mM Tris-HCl (pH 8.8), MgCl2 5 mM, tween20 0.01%, NP40 0.01%, BSA 0.01%, DTT 1 mM). 2 μL of assay buffer containing Pole-Hel protein (0.5 nM) and DNA substrate (500 nM) was transferred into assay ready plates, containing 0.04 μL of compounds diluted in DMSO. After a 30 minutes incubation at 23° C. in the dark, the reaction was triggered by adding 2 μL of ATP (60 μM), in assay buffer. After 60 minutes at 23° C., 4 μl of ADP-Glo™ Reagent (Glo 1) was added followed by 40 minutes of incubation, then 8 μl of ADP-Glo™ kinase Detection Reagent (Glo 2) followed by 60 minutes of incubation at 23° C. Luminescence was then measured using Tecan F200 infinite plate reader. Raw data were analysed using GeneData to generate IC50 values.
The Pole ATPase assay described in Biological Assay 1 above was used to evaluate inhibitors of Pole ATPase activity for the compounds described in the Experimental Part B above, in vitro.

T1 sequence (O75417 67-894): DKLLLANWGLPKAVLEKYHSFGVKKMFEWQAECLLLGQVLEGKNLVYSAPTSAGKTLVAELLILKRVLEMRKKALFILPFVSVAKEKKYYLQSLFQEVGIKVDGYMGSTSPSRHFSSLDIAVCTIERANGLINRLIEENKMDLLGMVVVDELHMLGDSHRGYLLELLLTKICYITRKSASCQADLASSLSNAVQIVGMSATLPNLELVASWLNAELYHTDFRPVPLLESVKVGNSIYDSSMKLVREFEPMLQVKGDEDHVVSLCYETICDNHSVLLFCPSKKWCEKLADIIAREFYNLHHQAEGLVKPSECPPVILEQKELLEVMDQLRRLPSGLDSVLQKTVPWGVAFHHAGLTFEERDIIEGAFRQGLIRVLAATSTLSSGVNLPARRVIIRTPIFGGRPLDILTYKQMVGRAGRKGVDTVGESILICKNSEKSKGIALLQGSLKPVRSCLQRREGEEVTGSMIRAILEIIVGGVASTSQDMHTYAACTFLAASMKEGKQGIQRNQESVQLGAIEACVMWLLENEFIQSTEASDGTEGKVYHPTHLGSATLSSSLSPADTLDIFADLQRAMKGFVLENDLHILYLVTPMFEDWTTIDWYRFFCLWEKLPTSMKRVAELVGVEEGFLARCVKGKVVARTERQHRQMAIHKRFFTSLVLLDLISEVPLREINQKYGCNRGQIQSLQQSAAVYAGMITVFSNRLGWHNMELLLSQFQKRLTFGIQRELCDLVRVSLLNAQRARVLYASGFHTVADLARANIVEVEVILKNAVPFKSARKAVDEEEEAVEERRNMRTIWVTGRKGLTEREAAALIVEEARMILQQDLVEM

Q: With “5′-methoxy-2′,6-dimethyl-N-[5-(morpholin-4-yl)-[1,3]thiazolo[5,4-d]pyrimidin-2-yl]-[4,4′-bipyridine]-3-carboxamide [Example 92]” as the substance, how does the IC50 read?
A: < 100 nM
